≈ marks a conversion by molar mass, not a printed value. Where “and” joins values, the source holds several entries; their conditions need not be identical. Identical values can stand only once. Like-named read-outs stand apart in the source and are kept apart here.
Experiments:
[1] = system: M. tuberculosis H37Rv(lux); assay: Killing curve assay; type: cell-based, Mycobacterium tuberculosis
[2] = Ultrasonic nebulizer delivery of tobramycin, effect of saline dilution (Example 2); settings: for aerosolized output of tobramycin, MEAN: UltraAire, 60 mg/mL, 5 mL, 10 minutes
Method: This example describes testing performed to determine the effect of normal and quarter strength diluted saline on the aerosolization of tobramycin and on the amount of drug delivered over a ten-minute period.
To test output from a hand-held portable ultrasonic nebulizer, an UltraAirs by Omron was used. This ultrasonic nebulizer has a reusable medication cup that is placed over the ultrasonic crystal. […] After 10 minutes nebulization run, the cups were reweighed. The aerosolized output of tobramycin was determined from the difference between weight before and after the nebulization. Each solute was tested 14 times.

[3] = Randomized cross-over study of nebulizers, peak sputum tobramycin
Description: A randomized, cross-over study compared the ability of several nebulizers to deliver tobramycin by measuring peak sputum tobramycin concentrations in samples collected ten minutes after completion of the aerosol dose.

clinical = type: in vivo, human; settings: for Sputum Tobramycin Concentrations: individual subjects, 300 mg in 5 mL 1/4 NS
Method: (§1) The doses were separated by at least 2 days and not more than 5 days. Peak serum and sputum concentrations were assessed and results are seen in Tables 10 and 11.

[4] = cited from earlier work
[5] = Serum tobramycin concentrations following aerosol administration (Example 5); type: in vivo, human; settings: for Serum Tobramycin: individual subjects
Method: as §1

[6] = Comparative characteristics of nebulizers delivering tobramycin
Description: Both ultrasonic and jet nebulizers were studied.
An in vitro comparative study evaluated a variety of commercially available jet nebulizers, including among others, the Acorn II® by Marquest, T-Updraft® by Hudson, Sidestream® by Medicaid, and Pari LC® by Pari. The PulmoAide® compressor was chosen because of its reliability and widespread use.

P. aeruginosa = settings: aerosolized 600 mg tid, cited from earlier work
[7] = FEV1 change following aerosol administration (Example 5); type: in vivo, human; settings: individual subjects, 300 mg, 30 min from completion
M. tuberculosis = assay: Minimal inhibitory / bactericidal concentration of tobramycin, general statements; parameters: species or system Mycobacterium tuberculosis
[8] = type: physicochemical
[9] = system: Drug-Sensitive Strains of M. tuberculosis; assay: microbe, parasite or virus in culture; type: cell-based; settings: Mycobacterium tuberculosis

## NNC(=O)c1ccncc1 [isoniazid]
[1]; FIG. 4
  persistence of bactericidal activity: only temporary
[1]; isoniazid 0.06 μg/mL
  day growth of the bacteria resumed: 4 days
  day of initial sharp killing: 4 days
[1]; isoniazid 0.25 μg/mL
  day growth of the bacteria resumed: 7 days
  day of initial sharp killing: 1 days

## NC[C@H]1O[C@H](O[C@H]2[C@H](O)[C@@H](O[C@H]3O[C@H](CO)[C@@H](O)[C@H](N)[C@H]3O)[C@H](N)C[C@@H]2N)[C@H](N)C[C@@H]1O [tobramycin]
[2]; 1/4 diluted saline versus full strength nondiluted saline
  amount of tobramycin delivered: Higher amount of tobramycin was delivered
[2]; diluted 0.22% NS
  aerosolized output of tobramycin, MEAN: 4.071
[2]; nondiluted 0.9% NS
  aerosolized output of tobramycin, MEAN: 3.636
[3]; Pari LC, 60 mg/mL in 1/4 NS
  time to complete nebulization of all 5 mL: about ten
[3]; Pari LC, 60 mg/mL in 5 mL 1/4 NS
  mass median aerodynamic diameter: about 3.3 μm
[3]; human, in vivo, inhaled or intranasal, 300 mg
  Cmax at 10 min: ~679000 ng/g
clinical; human, sputum, inhaled or intranasal, mean, Pari LC, 300 mg, 10 min
  concentration at 10 min: 396000 ± 677000 ng/g
clinical; Pari LC, 10 min from completion, 10 min
  Sputum Tobramycin Concentrations: 1595.9 μg/gm and 764.2 μg/gm and 133.7 μg/gm and 166.5 μg/gm and 1395.6 μg/gm
clinical; Pari LC, 1 hour, 60 min
  Sputum Tobramycin Concentrations: 481.8 μg/gm and 231.8 μg/gm and 110.7 μg/gm and 32.4 μg/gm and 186.8 μg/gm
clinical; Pari LC, 2 hours, 120 min
  Sputum Tobramycin Concentrations: 416.8 μg/gm and 52.8 μg/gm and 92.5 μg/gm and 60.5 μg/gm and 131.8 μg/gm
clinical; Pari LC, baseline
  Sputum Tobramycin Concentrations: bql (<20 μg/gm)
clinical; Sidestream, 10 min from completion, 10 min
  Sputum Tobramycin Concentrations: 792.8 μg/gm and 460.6 μg/gm and 162.5 μg/gm and 84.2 μg/gm and 1135.9 μg/gm
clinical; Sidestream, 1 hour, 60 min
  Sputum Tobramycin Concentrations: 1026.7 μg/gm and 23.1 μg/gm and 180.5 μg/gm and 36.6 μg/gm and 488.2 μg/gm
clinical; Sidestream, 2 hours, 120 min
  Sputum Tobramycin Concentrations: 163 μg/gm and 49.1 μg/gm and 58.1 μg/gm and 57.5 μg/gm and 331.5 μg/gm
clinical; Sidestream, baseline
  Sputum Tobramycin Concentrations: bql (<20 μg/gm) and bqi
clinical; mean, Pari LC, 300 mg, 1 hour
  Sputum Tobramycin Concentrations, Mean/Std Dev: 186.8 μg/gm
clinical; mean, Pari LC, 300 mg, 2 hours
  Sputum Tobramycin Concentrations, Mean/Std Dev: 131.8 μg/gm
clinical; mean, Pari LC, baseline
  Sputum Tobramycin Concentrations, Mean/Std Dev: bql (<20 μg/gm)
clinical; mean, Sidestream, 300 mg, 10 min
  Sputum Tobramycin Concentrations, Mean/Std Dev: 527.21 ± 585.9 μg/gm
clinical; mean, Sidestream, 300 mg, 1 hour
  Sputum Tobramycin Concentrations, Mean/Std Dev: 488.2 μg/gm
clinical; mean, Sidestream, 300 mg, 2 hours
  Sputum Tobramycin Concentrations, Mean/Std Dev: 331.5 μg/gm
clinical; mean, Sidestream, baseline
  Sputum Tobramycin Concentrations, Mean/Std Dev: bql (<20 μg/gm)
[1]; 4 μg/mL
  time for which growth is prevented: about eight
[1]; 8 μg/mL
  day at which growth is seen to be inhibited: 7 days
[1]; 16 μg/mL
  day at which 2-log reduction is reached: four
[1]; 1-2 μg/mL
  bactericidal activity compared to growth control: bactericidal activity decreasing the count of M. tuberculosis
[1]; 8 and 16 μg/mL
  reduction of M. tuberculosis counts in vitro: more than 2 log
[1]; FIG. 4
  activity against M. tuberculosis H37Rv in vitro: potent activity
  persistence of bactericidal activity: continuous decrease and inhibition of M. tuberculosis growth
[1]; tobramycin 8 and 16 μg/mL, decreased from 10^6
  count of Mycobacterium tuberculosis after treatment: about 10^2 CFU
[4]
  maximum safe concentration in the serum: 8 to 10 µg/mL
  recommended peak therapeutic serum concentrations: 8 to 10 µg/mL
[5]; 300 mg aerosol, because of serum concentrations
  safety of the dosage: extremely safe
[5]; 300 mg in 5 mL of 60 mg/mL in 1/4 NS
  serum concentrations: < 1600 ng/mL
[5]; Pari LC, 300 mg in 5 mL 1/4 NS, 1 hour from completion, 60 min
  Serum Tobramycin: 0.2 µg/mL and 0.5 µg/mL and 0.6 µg/mL and 0.8 µg/mL
[5]; Pari LC, 300 mg in 5 mL 1/4 NS, 2 hours from completion, 120 min
  Serum Tobramycin: 0.3 µg/mL and 0.4 µg/mL and 0.5 µg/mL and 0.7 µg/mL
[5]; Pari LC, 300 mg, baseline
  Serum Tobramycin: not detected
[5]; Sidestream, 300 mg in 5 mL 1/4 NS, 1 hour from completion, 60 min
  Serum Tobramycin: 0.3 µg/mL and 0.2 µg/mL and 0.9 µg/mL and 1.2 µg/mL and 1.6 µg/mL
[5]; Sidestream, 300 mg in 5 mL 1/4 NS, 2 hours from completion, 120 min
  Serum Tobramycin: 0.2 µg/mL and 0.8 µg/mL and 1.0 µg/mL
[5]; Sidestream, 300 mg, baseline
  Serum Tobramycin: not detected
[6]; DeVilbiss 99, 20 mg/mL in 1/2 NS
  MMAD: 4-5 microns
[6]; DeVilbiss 99, 20 mg/mL in 1/2 NS, 30 mL
  Time to Nebulize: 10 to 12 min
[6]; DeVilbiss 99, 20 mg/mL in 1/2 NS, total dose 600 mg
  Drug Dose/mL: 33 ± 1.8 mg
[6]; DeVilbiss 99, 600 mg
  tobramycin delivered: 33 mg/mL
[6]; Pari LC
  particle size: 4.5 μ
[6]; Pari LC Plus
  particle sizes: 3.3 μ
[6]; Pari LC, 60 mg/mL in 1/4 NS
  MMAD: 4-5 microns
[6]; Pari LC, 60 mg/mL in 1/4 NS, 5 mL
  Time to Nebulize: 10 min
[6]; Pari LC, 60 mg/mL in 1/4 NS, total dose 300 mg
  Drug Dose/mL: 29 ± 5 mg
[6]; Sidestream
  particle size output: 2.2 μ
[6]; Sidestream, 60 mg/mL in 1/4 NS
  MMAD: ~ 2.2 microns
[6]; Sidestream, 60 mg/mL in 1/4 NS, 5 mL, time to sputtering of jet
  Time to Nebulize: ~ 13 minutes
[6]; Sidestream, 60 mg/mL in 1/4 NS, total dose 300 mg
  Drug Dose/mL: 30 ± 1.8 mg
[6]; all three nebulizers
  tobramycin delivered to the airways: about 30 mg/mL
P. aeruginosa; 71 CF patients
  spirometry: improved spirometry
  sputum density of P. aeruginosa: significant reduction in sputum density of P. aeruginosa
P. aeruginosa
  safety and efficacy in CF patients: both safe and efficacious
[7]; Pari LC
  ± % change FEV1: -1.2% and 1.2% and -0.6% and -2% and -5%
[7]; Sidestream
  ± % change FEV1: -2.2% and 0.0% and -7.6% and -1%
M. tuberculosis; Mycobacterium tuberculosis, in the lungs and sputum, read-out: concentration found to be bactericidal
  MBC: ≥ 8 µg/mL
M. tuberculosis; Mycobacterium tuberculosis, read-out: lowest systemic minimal inhibitory concentration
  MIC: ~8 µg/mL (≈ 17.1 µM)
M. tuberculosis; Mycobacterium tuberculosis, systemic administration, read-out: minimal inhibitory concentration which would need to be present in the systemic circulation
  MIC: 800 to 1000 µg/mL (≈ 1710 to 2140 µM)
M. tuberculosis; toward M. tuberculosis
  sputum concentrations providing bactericidal activity, in multiples of MIC: 10-100 times MIC
[8]; 60 mg/mL, 40° C., pH 7.0, after 35 days
  color of the solution: yellowing of the solution
[8]; pH greater than 7.0
  degradation of tobramycin: degradation of tobramycin occurs
[9]; H37RV, read-out: Tobramycin MIC, strain H37RV
  MIC: 4 µg/mL (≈ 8.56 µM)
[9]; all tested drug sensitive strains, read-out: minimal inhibitory concentration
  MIC: 4 to 8 µg/mL (≈ 8.56 to 17.1 µM)
[9]; read-out: Tobramycin MIC, strain TN675
  MIC: 4 µg/mL (≈ 8.56 µM)
[9]; read-out: Tobramycin MIC, strain TN994
  MIC: 4 µg/mL (≈ 8.56 µM)
[9]; read-out: Tobramycin MIC, strain TN1008
  MIC: 4 µg/mL (≈ 8.56 µM)
[9]; read-out: Tobramycin MIC, strain TN1039
  MIC: 4 µg/mL (≈ 8.56 µM)
[9]; read-out: Tobramycin MIC, strain TN2351
  MIC: 8 µg/mL (≈ 17.1 µM)
[9]; read-out: Tobramycin MIC, strain TN2524
  MIC: 4 µg/mL (≈ 8.56 µM)
[9]; read-out: Tobramycin MIC, strain TN3183
  MIC: 4 µg/mL (≈ 8.56 µM)
[9]; read-out: Tobramycin MIC, strain TN3979
  MIC: 4 µg/mL (≈ 8.56 µM)
[9]; read-out: Tobramycin MIC, strain TN4259
  MIC: 4 µg/mL (≈ 8.56 µM)

From US6083922A (priority 1997, dated 2000)
